Test results from patent US20120177712A1, “ANTIMICROBIAL PARTICLE AND A PROCESS FOR PREPARING THE SAME” (priority 2009, published 2012).

Tested on: S. epidermidis
Test: Antimicrobial activity on fabric (washed cotton swatches)
Format: cell-based
Details: in model detergent (0.6 g/L Na-LAS, 1.2 g/L Soda, 0.9 g/L NaCl), CPC 0.02 g/L or equivalent amount of particle, cotton swatches soaked, rinsed three times
Protocol: Cotton swatches having dimension 4×4 cm were used in this example. The swatches were soaked in respective compositions as given below for 30 minutes and then washed for 30 minutes in a shaker bath. After that the swatches were rinsed three times with deionized water in a shaker bath. The liquid to cloth ration were maintained at 20 during the washing and rinsing step.

## CCCCCCCCCCCCCCCC[n+]1ccccc1 [CPC, Cetylpyridinium chloride]
  Log reduction: 1.99
